# According to patent publication US8268821B2, “Methods and compositions” (priority 2003, dated 2012):
# System: cancer-related neuropathic pain
# Test: Open label dose escalation study of flupirtine, case studies JE and RM
# Settings: for WHO PERFORMANCE STATUS: 0=fully active, 4=completely disabled; for WHO PERFORMANCE STATUS / SCORE SLEEP / SCORE POOR CONCENTRATION: day 1 baseline 3; for neuropathic dwascriminant function score: >0 = neuropathic, day 1 baseline 2.448; for freezing pain score / score for increased pain due to touch / score for increased pain due to weather changes / squeezing pain score: day 1 baseline 0; for burning pain score: day 1 baseline 90; for electric pain score / for shooting pain score / numbness score / score for overly sensitive to touch / tingling pain score / unpleasant pain score: day 1 baseline 95; for overwhelming pain score: day 1 baseline 98; for SCORE MOOD / SCORE RELATIONSHIPS / SCORE SLEEP / SCORE GENERAL ACTIVITY / SCORE WALKING / SCORE ENJOYMENT / SCORE TOTAL ACTIVITY: pain interference 1-10; for SCORE MOOD / SCORE RELATIONSHIPS / SCORE CONSTIPATION / SCORE INDIGESTION / LEAST PAIN LAST 24 HRS / PAIN SCORE RIGHT NOW: day 1 baseline 1; for SCORE GENERAL ACTIVITY: day 1 baseline 5; for SCORE WALKING: day 1 baseline 7; for SCORE ENJOYMENT / SCORE TOTAL ACTIVITY / AVERAGE PAIN LAST 24 HOURS: day 1 baseline 8; for SCORE CONSTIPATION / SCORE INDIGESTION / SCORE NAUSEA / SCORE UN[…] GAIT / SCORE POOR CONCENTRATION / SCORE DROWSINESS / SCORE POOR APPETITE: scale 1-4; for SCORE NAUSEA / SCORE UN[…] GAIT: day 1 baseline 2; for SCORE DROWSINESS / SCORE POOR APPETITE: day 1 baseline 4; for LEAST PAIN LAST 24 HRS / PAIN SCORE RIGHT NOW / AVERAGE PAIN LAST 24 HOURS / WORST PAIN SCORE LAST 24 HOURS: scale to 10; for WORST PAIN SCORE LAST 24 HOURS: day 1 baseline 10
# [1] = JE day 2, flupirtine 100 mg qid
# [2] = JE day 3, flupirtine 100 mg qid
# [3] = JE day 4, flupirtine 200 mg qid
# [4] = JE day 5, flupirtine 100 mg qid
smiles,measurement,setting,value
CCOC(=O)Nc1ccc(NCc2ccc(F)cc2)nc1N [flupirtine],WHO PERFORMANCE STATUS,[1],3
same,neuropathic dwascriminant function score,[1],−1.238
same,freezing pain score,[1],0
same,score for increased pain due to touch,[1],0
same,score for increased pain due to weather changes,[1],0
same,squeezing pain score,[1],0
same,burning pain score,[1],20
same,electric pain score,[1],0
same,for shooting pain score,[1],10
same,numbness score,[1],0
same,score for overly sensitive to touch,[1],0
same,tingling pain score,[1],0
same,unpleasant pain score,[1],0
same,overwhelming pain score,[1],0
same,SCORE MOOD,[1],1
same,SCORE RELATIONSHIPS,[1],1
same,SCORE SLEEP,[1],1
same,SCORE GENERAL ACTIVITY,[1],1
same,SCORE WALKING,[1],1
same,SCORE ENJOYMENT,[1],1
same,SCORE TOTAL ACTIVITY,[1],1
same,SCORE CONSTIPATION,[1],3
same,SCORE INDIGESTION,[1],1
same,SCORE NAUSEA,[1],1
same,SCORE UN[…] GAIT,[1],1
same,SCORE POOR CONCENTRATION,[1],1
same,SCORE DROWSINESS,[1],4
same,SCORE POOR APPETITE,[1],1
same,LEAST PAIN LAST 24 HRS,[1],0
same,PAIN SCORE RIGHT NOW,[1],0
same,AVERAGE PAIN LAST 24 HOURS,[1],2
same,WORST PAIN SCORE LAST 24 HOURS,[1],2
same,WHO PERFORMANCE STATUS,[2],2
same,neuropathic dwascriminant function score,[2],−1.408
same,freezing pain score,[2],0
same,score for increased pain due to touch,[2],0
same,score for increased pain due to weather changes,[2],0
same,squeezing pain score,[2],0
same,burning pain score,[2],0
same,electric pain score,[2],0
same,for shooting pain score,[2],0
same,numbness score,[2],0
same,score for overly sensitive to touch,[2],0
same,tingling pain score,[2],0
same,unpleasant pain score,[2],0
same,overwhelming pain score,[2],0
same,SCORE MOOD,[2],1
same,SCORE RELATIONSHIPS,[2],1
same,SCORE SLEEP,[2],1
same,SCORE GENERAL ACTIVITY,[2],1
same,SCORE WALKING,[2],1
same,SCORE ENJOYMENT,[2],1
same,SCORE TOTAL ACTIVITY,[2],1
same,SCORE CONSTIPATION,[2],1
same,SCORE INDIGESTION,[2],1
same,SCORE NAUSEA,[2],1
same,SCORE UN[…] GAIT,[2],1
same,SCORE POOR CONCENTRATION,[2],1
same,SCORE DROWSINESS,[2],3
same,SCORE POOR APPETITE,[2],1
same,LEAST PAIN LAST 24 HRS,[2],0
same,PAIN SCORE RIGHT NOW,[2],0
same,AVERAGE PAIN LAST 24 HOURS,[2],0
same,WORST PAIN SCORE LAST 24 HOURS,[2],0
same,WHO PERFORMANCE STATUS,[3],3
same,neuropathic dwascriminant function score,[3],−1.408
same,freezing pain score,[3],0
same,score for increased pain due to touch,[3],0
same,score for increased pain due to weather changes,[3],0
same,squeezing pain score,[3],0
same,burning pain score,[3],0
same,electric pain score,[3],0
same,for shooting pain score,[3],0
same,numbness score,[3],0
same,score for overly sensitive to touch,[3],0
same,tingling pain score,[3],0
same,unpleasant pain score,[3],0
same,overwhelming pain score,[3],0
same,SCORE MOOD,[3],1
same,SCORE RELATIONSHIPS,[3],1
same,SCORE SLEEP,[3],1
same,SCORE WALKING,[3],1
same,SCORE ENJOYMENT,[3],1
same,SCORE TOTAL ACTIVITY,[3],1
same,SCORE CONSTIPATION,[3],3
same,SCORE INDIGESTION,[3],1
same,SCORE NAUSEA,[3],1
same,SCORE UN[…] GAIT,[3],4
same,SCORE POOR CONCENTRATION,[3],2
same,SCORE DROWSINESS,[3],4
same,SCORE POOR APPETITE,[3],1
same,LEAST PAIN LAST 24 HRS,[3],0
same,PAIN SCORE RIGHT NOW,[3],0
same,AVERAGE PAIN LAST 24 HOURS,[3],0
same,WORST PAIN SCORE LAST 24 HOURS,[3],0
same,WHO PERFORMANCE STATUS,[4],4
same,neuropathic dwascriminant function score,[4],−1.408
same,freezing pain score,[4],0
same,score for increased pain due to touch,[4],0
same,score for increased pain due to weather changes,[4],0
same,squeezing pain score,[4],0
same,burning pain score,[4],0
same,electric pain score,[4],0
same,for shooting pain score,[4],0
same,numbness score,[4],0
same,score for overly sensitive to touch,[4],0
same,tingling pain score,[4],0
same,unpleasant pain score,[4],0
same,overwhelming pain score,[4],0
same,SCORE MOOD,[4],1
same,SCORE RELATIONSHIPS,[4],1
same,SCORE SLEEP,[4],1
same,SCORE GENERAL ACTIVITY,[4],1
